Test results published in ChEMBL document CHEMBL5226319, “Small molecule approaches to treat autoimmune and inflammatory diseases (Part III): Targeting cytokines and cytokine receptor complexes” (Bioorg Med Chem Lett, 2021).

Tests used:
[1] = biological target: T1, Interleukin-1 receptor type 1 (Homo sapiens, UniProt P14778); experiment: Inhibition of human IL1-R1 assessed as dissociation constant incubated for 5 mins by SPR analysis
T1 sequence (P14778 whole entry): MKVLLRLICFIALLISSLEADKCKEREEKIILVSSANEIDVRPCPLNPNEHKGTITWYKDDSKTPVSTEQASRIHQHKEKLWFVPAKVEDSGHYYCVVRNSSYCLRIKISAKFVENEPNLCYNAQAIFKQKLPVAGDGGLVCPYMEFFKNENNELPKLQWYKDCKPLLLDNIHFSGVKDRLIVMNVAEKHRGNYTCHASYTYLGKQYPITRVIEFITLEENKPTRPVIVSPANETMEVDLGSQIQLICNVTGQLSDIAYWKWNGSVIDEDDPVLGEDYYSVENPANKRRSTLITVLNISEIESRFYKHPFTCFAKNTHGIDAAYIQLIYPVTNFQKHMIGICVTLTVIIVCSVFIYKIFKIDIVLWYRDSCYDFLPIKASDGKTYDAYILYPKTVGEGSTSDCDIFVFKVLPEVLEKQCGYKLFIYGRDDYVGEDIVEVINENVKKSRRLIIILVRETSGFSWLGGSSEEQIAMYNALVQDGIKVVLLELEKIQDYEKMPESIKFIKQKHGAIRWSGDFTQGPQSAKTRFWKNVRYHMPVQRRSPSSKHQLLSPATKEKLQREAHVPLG

Interleukin-4 [2] = biological target: T2, Interleukin-4 (Homo sapiens, UniProt P05112); experiment: Inhibition of IL-4 (unknown origin) assessed as dissociation constant by SPR analysis
T2 sequence (P05112 whole entry): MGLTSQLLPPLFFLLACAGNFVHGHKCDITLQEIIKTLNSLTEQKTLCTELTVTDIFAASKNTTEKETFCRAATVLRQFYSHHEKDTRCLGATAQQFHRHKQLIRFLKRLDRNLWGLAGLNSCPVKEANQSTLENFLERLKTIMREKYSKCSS

Interleukin-4 [3] = biological target: T2, Interleukin-4; experiment: Inhibition of IL-4 (unknown origin) in human THP-1 cells assessed as inhibition of STAT6 phosphorylation by HEK-Blue assay; format: cell-based
Interleukin-33 = biological target: T3, Interleukin-33 (Homo sapiens, UniProt O95760); experiment: Inhibition of human IL-33 incubated for 1 hrs by AlphaLISA assay
T3 sequence (O95760 whole entry): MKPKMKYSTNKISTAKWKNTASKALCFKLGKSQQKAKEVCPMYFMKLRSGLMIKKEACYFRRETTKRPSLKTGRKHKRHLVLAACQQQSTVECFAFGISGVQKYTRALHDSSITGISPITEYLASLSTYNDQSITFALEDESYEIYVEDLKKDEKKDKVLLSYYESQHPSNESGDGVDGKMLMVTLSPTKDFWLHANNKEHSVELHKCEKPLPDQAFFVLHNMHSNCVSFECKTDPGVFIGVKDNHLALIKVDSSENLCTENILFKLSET

[4] = biological target: T4, Interleukin-2 receptor subunit alpha (Homo sapiens, UniProt P01589); experiment: Inhibition of IL-2R alpha (unknown origin)
T4 sequence (P01589 whole entry): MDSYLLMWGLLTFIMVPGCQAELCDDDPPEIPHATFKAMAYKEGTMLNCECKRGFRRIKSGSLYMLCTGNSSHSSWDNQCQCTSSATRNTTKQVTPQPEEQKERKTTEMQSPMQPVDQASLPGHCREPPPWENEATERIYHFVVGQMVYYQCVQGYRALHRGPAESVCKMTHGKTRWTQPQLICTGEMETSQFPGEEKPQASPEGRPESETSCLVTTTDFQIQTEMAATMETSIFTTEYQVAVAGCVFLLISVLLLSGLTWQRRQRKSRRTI

Homo sapiens = species on record: Homo sapiens; experiment: (§1) Binding affinity to gp130 (unknown origin) assessed as fold increase
[5] = Inhibition of IL-6/gp130 (unknown origin) by SPR analysis; parameters: species or system Homo sapiens
[6] = Inhibition of OSMR/gp130 (unknown origin) by SPR analysis; parameters: species or system Homo sapiens
[7] = Inhibition of human CXCL1 protein secretion in IL-36 gamma-stimulated HaCaT cells; format: cell-based
Interleukin-18 = biological target: T5, Interleukin-18 (Homo sapiens, UniProt Q14116); experiment: Inhibition of human IL-18 expressed in Escherichia coli BL21(DE3) cells incubated for 18 hrs
T5 sequence (Q14116 whole entry): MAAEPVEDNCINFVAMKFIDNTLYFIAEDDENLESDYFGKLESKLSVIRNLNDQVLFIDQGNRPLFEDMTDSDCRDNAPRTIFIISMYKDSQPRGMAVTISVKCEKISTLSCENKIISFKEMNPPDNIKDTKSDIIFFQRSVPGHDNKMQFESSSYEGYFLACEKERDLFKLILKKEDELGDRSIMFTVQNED

[8] = as §1; parameters: species or system Homo sapiens
[9] = Binding affinity to gp130 (unknown origin) assessed as dissociation constant by SPR analysis; parameters: species or system Homo sapiens

Structure (SMILES): NCCc1c(-c2ccccc2)n(-c2ccccc2)c2ccccc12
- Kd [1]: 316 µM

Structure (SMILES): N#Cc1c(-c2ccc(O)c(O)c2)cc(-c2ccc(F)cc2)nc1N
- Kd (Interleukin-4 [2]): 1.8 µM
- EC50 (Interleukin-4 [3]): 3.1 µM

Structure (SMILES): COc1ccc([C@H]2CCCN2Cc2ccc(-c3ccccc3[N+](=O)[O-])o2)cc1
- IC50 (Interleukin-33): 43 µM

Structure (SMILES): COC(=O)[C@H](Cc1ccc(C#Cc2ccccc2)cc1)NC(=O)C[C@H]1CCCN(C(=N)N)C1
- IC50 [4]: 3 µM

Structure (SMILES): CCCCc1ccc(OC)c(CN2c3ccccc3[C@]3(O)C[C@@H](COC(=O)c4ccccc4)O[C@H]23)c1OC
- fold change (FC) (Homo sapiens): 5

Structure (SMILES): Brc1ccc(Nc2nc(-c3ccccc3)cs2)cc1
- Kd [5]: 2.9 µM
- Kd [6]: 5.7 µM

Structure (SMILES): COC(c1ccccc1)(c1ccccc1)[C@H](Oc1nc(C)cc(-c2ccc(C)c(N)c2)n1)C(=O)O
- IC50 [7]: 0.031 µM

Structure (SMILES): N#Cc1ccc(NC(=O)Nc2ccc(Oc3ccc(NC(=O)Nc4ccc(C#N)cc4)cc3)cc2)cc1
- EC50 (Interleukin-18): 0.25 µM

Structure (SMILES): COc1ccc([C@@H]2CCCN2Cc2ccc(-c3ccccc3[N+](=O)[O-])o2)cc1
- IC50 (Interleukin-33): 42 µM

Structure (SMILES): CCCCc1ccc(O)c(CN2c3ccccc3[C@]3(O)C[C@@H](COC(=O)c4ccccc4)O[C@H]23)c1O
- Kd [8]: 36.9 µM
- fold change (FC) (Homo sapiens): 5

Structure (SMILES): CCCCC1=C(C)C(=O)[C@@](C)(CN2c3ccccc3[C@]3(O)CCO[C@H]23)C1=O
- Kd [9]: 288 µM

Structure (SMILES): CCCCc1ccc(O)c(Cn2cc(CC(O)COC(=O)c3ccccc3)c3ccccc32)c1O (stereo unspecified)
- Kd [8]: 29 µM
- fold change (FC) (Homo sapiens): 5
